Results published in ChEMBL document CHEMBL1201862, “PubChem BioAssay data set” (2004).
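A five-concentration, 48-hour dose response in 96-well plates underlies each endpoint, interpolated linearly between surrounding concentrations. GI50: concentration for 50% inhibition of growth.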 Active and inactive are the calls of the source. No stated cut-off is given here; in the data, active = GI50 up to about 1.1 µM and inactive = higher.

Columns and labels:
Experiment in all cases: DTP human tumour cell line panel, 48 h
SNB-19 = system: SNB-19
SR = system: SR
Malme-3M = system: Malme-3M
OVCAR-8 = system: OVCAR-8
OVCAR-5 = system: OVCAR-5
SW-620 = system: SW-620
RPMI-8226 = system: RPMI-8226
UACC-257 = system: UACC-257
LOX IMVI = system: LOX IMVI
MDA-N = system: MDA-N
A549 = system: A549
MDA-MB-231 = system: MDA-MB-231
NCI-H522 = system: NCI-H522
T47D = system: T47D
HOP-62 = system: HOP-62
NCI-H226 = system: NCI-H226
MCF7 = system: MCF7
EKVX = system: EKVX
A498 = system: A498
SF-539 = system: SF-539

| SMILES | GI50 (SNB-19) | GI50 (SR) | GI50 (Malme-3M) | GI50 (OVCAR-8) | GI50 (OVCAR-5) | GI50 (SW-620) | GI50 (RPMI-8226) | GI50 (UACC-257) | GI50 (LOX IMVI) | GI50 (MDA-N) | GI50 (A549) | GI50 (MDA-MB-231) | GI50 (NCI-H522) | GI50 (T47D) | GI50 (HOP-62) | GI50 (NCI-H226) | GI50 (MCF7) | GI50 (EKVX) | GI50 (A498) | GI50 (SF-539) |
| --- | --- | --- | --- | --- | --- | --- | --- | --- | --- | --- | --- | --- | --- | --- | --- | --- | --- | --- | --- | --- |
| CC1(C)OCC2OC(n3cnc4c(N)nc(Cl)nc43)C(OS(C)(=O)=O)C2O1 (stereo not given) | > 100 µM (inactive) | > 100 µM (inactive) | > 100 µM (inactive) | > 100 µM (inactive) | > 100 µM (inactive) | > 100 µM (inactive) | > 100 µM (inactive) | > 100 µM (inactive) | > 100 µM (inactive) | > 100 µM (inactive) | > 100 µM (inactive) | > 100 µM (inactive) | > 100 µM (inactive) | > 100 µM (inactive) | > 100 µM (inactive) | > 100 µM (inactive) | > 100 µM (inactive) | > 100 µM (inactive) | > 100 µM (inactive) | > 100 µM (inactive) |
| CC(C)(Cl)C(Cl)CC/C(CBr)=C(\Cl)CCl (stereo not given) | 17.6 µM (inactive) | 0.485 µM (active) | 6.85 µM (inactive) | 3.17 µM (inactive) | 14.7 µM (inactive) | 1.96 µM (inactive) | 1.89 µM (inactive) | 3.25 µM (inactive) | 0.406 µM (active) | 2.21 µM (inactive) | 18 µM (inactive) | 2.57 µM (inactive) | 0.658 µM (active) | 1.82 µM (inactive) | 11.8 µM (inactive) | 4.69 µM (inactive) | 11 µM (inactive) | 17.7 µM (inactive) | 19.4 µM (inactive) | 4.86 µM (inactive) |
| Cc1c2cccc-2c2cc(O)c3ccccc3c2n1-c1ccc(N(C)C)cc1 | 16.4 µM (inactive) | 4.63 µM (inactive) | 15.6 µM (inactive) | 15.9 µM (inactive) | 10.9 µM (inactive) | 20.7 µM (inactive) | 6.22 µM (inactive) | 28.1 µM (inactive) | 13.4 µM (inactive) | 17 µM (inactive) | 14.6 µM (inactive) | 3.01 µM (inactive) | 14.8 µM (inactive) | 0.304 µM (active) | 12.2 µM (inactive) | 9.68 µM (inactive) | 0.395 µM (active) | 2.83 µM (inactive) | 17.1 µM (inactive) | 14.3 µM (inactive) |
| CCOC(=O)c1sc2[n+](c1C)C(=O)/C(=C/c1ccccc1Cl)S2 | 0.579 µM (active) | 0.394 µM (active) | 11 µM (inactive) | 1.01 µM (active) | 14.7 µM (inactive) | 0.883 µM (active) | 0.54 µM (active) | 4.83 µM (inactive) | 0.851 µM (active) | 0.259 µM (active) | 0.9 µM (active) | 3.06 µM (inactive) | 0.532 µM (active) | 15.3 µM (inactive) | 1.61 µM (inactive) | 0.953 µM (active) | 3.11 µM (inactive) | 3.21 µM (inactive) | 6.92 µM (inactive) | 0.472 µM (active) |
| COC(=O)/C=C(\S/C(=N\n1cc(C(=O)OC)c(C(=O)OC)c1-c1ccc(C)cc1)c1ccc(C)cc1)C(=O)OC | 34 µM (inactive) | 1.16 µM (inactive) | 6.52 µM (inactive) | 12.9 µM (inactive) | 6.7 µM (inactive) | 1.77 µM (inactive) | 1.44 µM (inactive) | 4.72 µM (inactive) | 2.84 µM (inactive) | 5.79 µM (inactive) | 18.7 µM (inactive) | 5.25 µM (inactive) | 1.67 µM (inactive) | 1.03 µM (active) | 16.9 µM (inactive) | 1.7 µM (inactive) | 6.7 µM (inactive) | 15.7 µM (inactive) | 12.8 µM (inactive) | 17.9 µM (inactive) |
| Cc1cc2sc(C)[n+](CCCOS(=O)(=O)[O-])c2cc1C | > 100 µM (inactive) | 66.2 µM (inactive) | 79.6 µM (inactive) | > 100 µM (inactive) | > 100 µM (inactive) | > 100 µM (inactive) | 53 µM (inactive) | > 100 µM (inactive) | > 100 µM (inactive) | > 100 µM (inactive) | > 100 µM (inactive) | > 100 µM (inactive) | 40.6 µM (inactive) | 58.6 µM (inactive) | > 100 µM (inactive) | > 100 µM (inactive) | 60.8 µM (inactive) | > 100 µM (inactive) | > 100 µM (inactive) | > 100 µM (inactive) |
